# In PubChem BioAssay (NCI):
#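 96-well plates; 48 h exposure; 5 concentrations. Endpoints by linear interpolation between flanking doses. Not reached: highest tested concentration assigned. The concentration for full growth arrest is given as TGI.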
# How the values were obtained:
# Test in all cases: NCI anticancer screen, dose series, 48 h
# PC-3 prostate = test system: PC-3 prostate
# KM12 colon = test system: KM12 colon
# ACHN renal = test system: ACHN renal
# OVCAR-4 ovarian = test system: OVCAR-4 ovarian
# OVCAR-8 ovarian = test system: OVCAR-8 ovarian
# OVCAR-5 ovarian = test system: OVCAR-5 ovarian
# T-47D breast = test system: T-47D breast
# HCT-15 colon = test system: HCT-15 colon
# LOX IMVI melanoma = test system: LOX IMVI melanoma
# IGROV1 ovarian = test system: IGROV1 ovarian
SMILES,TGI (PC-3 prostate),TGI (KM12 colon),TGI (ACHN renal),TGI (OVCAR-4 ovarian),TGI (OVCAR-8 ovarian),TGI (OVCAR-5 ovarian),TGI (T-47D breast),TGI (HCT-15 colon),TGI (LOX IMVI melanoma),TGI (IGROV1 ovarian)
O=C1Cc2c(-c3ccccc3)cc(-c3ccc(Cl)cc3)nc2-c2ccccc2N1,> 57.7 µM,96.1 µM,7.36 µM,3.82 µM,9.09 µM,> 83.7 µM,17.8 µM,> 55 µM,21.9 µM,35.9 µM
CC(=O)OC/C=C/Cn1nc(Br)c(=O)[nH]c1=O,> 100 µM,> 100 µM,> 100 µM,> 100 µM,> 100 µM,> 100 µM,> 100 µM,> 100 µM,> 100 µM,> 100 µM
N#Cc1c2c(c(Nc3ccc(Cl)cc3)n3c1nc1ccccc13)CCCC2,> 100 µM,> 100 µM,> 100 µM,> 96.6 µM,> 100 µM,> 100 µM,> 100 µM,> 100 µM,> 100 µM,> 100 µM
CN1Cc2c(ccc3c2OCO3)[C@@H]2[C@H](O)Cc3cc4c(cc3[C@@H]21)OCO4,> 100 µM,12.4 µM,> 100 µM,> 100 µM,> 51.5 µM,> 100 µM,> 100 µM,6.74 µM,> 47.3 µM,> 100 µM
CC(C)(C)OC(=O)NCCCCC1NC(=O)[C@@H]2Cc3c([nH]c4ccccc34)C(c3ccccc3)N2C1=O (stereo not given in full),> 100 µM,> 100 µM,> 100 µM,> 100 µM,> 100 µM,> 100 µM,> 100 µM,> 100 µM,56.4 µM,> 100 µM
COc1cc(CC2C(=O)OCC2Cc2ccc(OC)c(OC)c2)ccc1O (stereo not given),> 100 µM,> 100 µM,> 100 µM,> 100 µM,> 100 µM,> 100 µM,> 100 µM,> 100 µM,> 100 µM,> 100 µM
O=C(CCc1ccccc1)NCCc1ccc(O)c(O)c1,> 61.2 µM,> 94.4 µM,> 100 µM,46.7 µM,> 85.6 µM,> 31.6 µM,> 100 µM,> 100 µM,> 100 µM,> 100 µM
CCOC(=O)c1ccc(-c2cccs2)[nH]1,> 100 µM,> 100 µM,> 100 µM,> 100 µM,> 100 µM,> 100 µM,> 92.1 µM,> 31.6 µM,> 100 µM,> 100 µM
Oc1[nH]c2ccccc2c1N=Nc1nc(-c2ccccc2)cs1,51.8 µM,> 100 µM,> 100 µM,> 100 µM,> 100 µM,> 100 µM,> 100 µM,> 100 µM,> 100 µM,> 100 µM
O=P1(C(O)c2ccccc2)N(Cc2ccccc2)[C@@H]2CCCC[C@H]2N1Cc1ccccc1 (stereo not given in full),89.1 µM,> 100 µM,> 100 µM,53.1 µM,> 100 µM,76.8 µM,85.6 µM,> 100 µM,32.1 µM,49.9 µM
CCOC(=O)C(NC(=O)c1cccc(Cl)c1)(N1CCN(c2cc3c(cc2F)c(=O)c(C(=O)O)cn3CC)CC1)C(F)(F)F (stereo not given),35.1 µM,25.2 µM,32.9 µM,53 µM,46.7 µM,33 µM,51.4 µM,38.2 µM,48.7 µM,47.6 µM
Cc1cc(NS(=O)(=O)c2ccc(NC(NC(=O)OC(C)C)(C(F)(F)F)C(F)(F)F)cc2)nc(C)n1,> 100 µM,> 100 µM,> 100 µM,> 100 µM,> 100 µM,> 100 µM,> 100 µM,> 100 µM,> 100 µM,> 100 µM
CCCSC1=N/C(=C\c2ccco2)C(=O)N1,> 100 µM,> 100 µM,> 100 µM,> 100 µM,> 100 µM,> 100 µM,> 100 µM,> 100 µM,> 100 µM,> 100 µM
O=C1c2sccc2C(=O)c2c(CO)csc21,> 32.8 µM,31.5 µM,12.2 µM,9.46 µM,12.4 µM,> 53 µM,17.5 µM,11.2 µM,10.6 µM,17.7 µM
Clc1cc2ncn(C3CCCO3)c2cc1Cl (stereo not given),> 100 µM,> 100 µM,> 100 µM,> 100 µM,> 100 µM,> 100 µM,> 100 µM,> 100 µM,> 100 µM,69.5 µM
COc1c(-c2nc3nc(N4CCN(C)CC4)ccc3[nH]2)cc(OC)c2c1nc(CCl)n2C,28.2 µM,30.8 µM,26.9 µM,44.3 µM,50.5 µM,56.1 µM,38.9 µM,90.6 µM,24 µM,36.8 µM
CO/C(N)=C(\C#N)N=Cc1cccs1,> 100 µM,> 100 µM,> 100 µM,> 100 µM,> 100 µM,> 100 µM,> 100 µM,> 100 µM,> 100 µM,> 100 µM

SMILES,TGI (PC-3 prostate),TGI (KM12 colon),TGI (ACHN renal),TGI (OVCAR-4 ovarian),TGI (OVCAR-8 ovarian),TGI (OVCAR-5 ovarian),TGI (T-47D breast),TGI (HCT-15 colon),TGI (LOX IMVI melanoma),TGI (IGROV1 ovarian)
CNC(=O)N(C)C(=O)c1ccccc1C(=O)N(C)C(=O)NC,> 10 µM,> 10 µM,> 10 µM,> 10 µM,> 10 µM,> 10 µM,> 10 µM,> 10 µM,> 10 µM,> 10 µM
CCCCCNC(=O)OC1CCn2c1nc1c2C(=O)C(C)=C(N2CC2)C1=O (stereo not given),2.39 µM,3.48 µM,2.81 µM,4.98 µM,5.31 µM,7.77 µM,7.16 µM,4.45 µM,1.07 µM,3.43 µM
COc1ccc(N=C(SSC(=Nc2ccc(OC)cc2)c2ccc([N+](=O)[O-])o2)c2ccc([N+](=O)[O-])o2)cc1,2.94 µM,2.79 µM,4.1 µM,2.92 µM,7.71 µM,5.01 µM,4.2 µM,2.03 µM,5.05 µM,4.2 µM
CCOC(=O)C1(NC(=O)OC(C)(C)C)CCc2[nH]oc(=O)c2C1 (stereo not given),> 100 µM,> 100 µM,> 100 µM,> 100 µM,> 100 µM,> 100 µM,> 100 µM,> 100 µM,> 100 µM,> 100 µM
CC1=C(C(=O)OC(C)(C)C)C(c2ccc([N+](=O)[O-])cc2)C(C(=O)OC(C)(C)C)=C(C)N1,45.1 µM,38.5 µM,41.3 µM,37.4 µM,42.3 µM,34.9 µM,33.4 µM,62.5 µM,32.9 µM,32.2 µM
Cn1c(=O)c2c(n(C)c1=O)n1c(=O)c3ccccc3nc1n2C,> 100 µM,> 100 µM,> 100 µM,> 100 µM,> 100 µM,> 100 µM,> 100 µM,> 100 µM,> 100 µM,> 100 µM
COc1ccc(/[N+]([O-])=C/c2ccccc2OC(=S)S)cc1,> 100 µM,> 100 µM,> 100 µM,> 100 µM,45 µM,> 100 µM,> 100 µM,> 100 µM,52.7 µM,> 100 µM
O=C(Cn1c(-c2ccccc2)cc2ccccc21)N1CCOCC1,> 100 µM,> 100 µM,> 100 µM,> 100 µM,> 100 µM,> 100 µM,> 100 µM,> 100 µM,> 100 µM,> 100 µM
Nc1c(/C=C/c2cc3cc(C4=NCCN4)ccc3o2)[nH]c2cc(C3=NCCN3)ccc12,> 100 µM,> 100 µM,> 100 µM,> 100 µM,> 100 µM,> 100 µM,> 100 µM,> 100 µM,> 100 µM,> 100 µM
CC(=O)OCc1cc2c(s1)C(=O)c1sccc1C2=O,0.563 µM,0.562 µM,0.246 µM,0.334 µM,0.576 µM,0.332 µM,0.882 µM,0.303 µM,0.0468 µM,2.79 µM
O=C(C[N+]1(c2ccccc2)CCOCC1)c1ccccc1,> 100 µM,> 100 µM,> 100 µM,> 100 µM,> 100 µM,> 100 µM,> 100 µM,> 100 µM,> 100 µM,> 100 µM
COc1ccc(OC)c2c(Nc3ccc(S(=O)(=O)O)c4cc(S(=O)(=O)O)cc(S(=O)(=O)O)c34)cc(C)nc12,> 100 µM,> 100 µM,> 100 µM,> 100 µM,> 100 µM,> 100 µM,> 100 µM,> 100 µM,> 100 µM,> 100 µM
Cc1nnc(N)s/c1=N/O,> 100 µM,> 100 µM,> 100 µM,> 100 µM,> 100 µM,> 100 µM,> 100 µM,> 100 µM,> 100 µM,> 100 µM
COC(=O)c1ccccc1NCc1cc(O)ccc1O,33.6 µM,53.2 µM,29.8 µM,34.9 µM,34.5 µM,> 62.1 µM,31.8 µM,41.1 µM,32 µM,> 63.4 µM
CCc1n[nH]c(=O)n1-c1ccncc1,> 100 µM,> 100 µM,> 100 µM,> 100 µM,> 100 µM,> 100 µM,> 100 µM,> 100 µM,> 100 µM,> 100 µM
Cc1c(Cl)cc(C(C)(C)C)c(O)c1Cc1c(C)c(Cl)cc(C(C)(C)C)c1O,9.93 µM,5.76 µM,7.64 µM,10.3 µM,5.51 µM,14 µM,13.1 µM,13.6 µM,3.19 µM,5.53 µM
NNC(=O)COc1nc(-c2cccs2)nc2ccc(I)cc12,> 100 µM,41.5 µM,74.2 µM,77 µM,> 100 µM,> 100 µM,21.9 µM,56 µM,36.9 µM,56.3 µM
